# Measured values taken from patent US9540646B2, “Cellular targets for HIV infection” (priority 2012, dated 2017).
# Entries after “also recorded” stand apart in the source; their conditions may differ. Where two headings read alike, the source gives them in different places.
# Assays:
# Panx1 hemichannels [1] = molecular target: T1, Panx1 hemichannels (Homo sapiens, UniProt Q96RD7); experiment: HIV-induced ethidium (Etd) dye uptake, time lapse fluorescence imaging, in PBMCs and CD4+ T lymphocytes; assay type: cell-based; parameters: endogenous in cells; host or cells: primary human PBMCs and purified CD4+ T lymphocytes from leukopacks (New York Blood Center); conditions: 5 min and 72 h; for Etd uptake (rate) induced by the virus: PBMCs exposed to HIVADA, CD4+ T lymphocytes exposed to HIVADA, HIVBal or HIVLAI, Prob 500 μM, 10Panx1 200 μM, scrPanx1 200 μM, La3+ 200 μM, Cx43E2 1:500, siRNA 10 nM
# Experimental: Isolation of human PBMCs and CD4+ T lymphocytes. Anticoagulated blood was obtained from leukopacks obtained from the New York Blood Center as described before (16). PBMCs were isolated by under-layering with Ficoll-Paque (Amersham Bioscience, Uppsala, Sweden) according to the procedure described by the manufacturer. Purified PBMC used in these studies were ˜10% monocytes and ˜90% lymphocytes and other hematopoietic cells, as determined by incubation with premixed human CD45 and CD14 monoclonal antibodies conjugated to FITC and PE, respectively (1:50, Caltag Laboratories, Burlingame, Calif.), followed by fluorescence-activated cell sorter analysis (FACS) as we previously described (17). To obtain a pure population of CD4+ T lymphocytes, monocytes were removed from PBMCs by using CD14 coupled magnetic beads and subsequently CD4+ T lymphocytes were isolated with CD4 coupled magnetic beads (Stem Cell Technologies, Vancouver, BC, Canada).
# HIV-infection and quantification of replication. Cell-free viral inocula were obtained from the National Institutes of Health AIDS Research and Reference Reagent Program. Three isolates were used: HIVADA, and HIVBal, two R5 isolates and HIVLAI, an X4 isolate, PBMCs and purified CD4+ T lymphocytes were isolated and activated with phytohemagglutinin (PHA; 5 μg/ml) plus interleukin (IL-2; 5%) in RPMI 1640 for 48 h in polypropylene tubes at a density of 2×10^6 […] PBMCs and CD4+ T lymphocytes were then infected by incubation for 24 h with viral stocks of HIVADA (20 ng p24/ml/1×10^6 cells), HIVLAI (20 ng p24/ml/1×10^6 cells) or HIVBal (0.001 MOI), washed thoroughly, resuspended in fresh medium, and maintained in polypropylene tubes. Uninfected control cells were activated with PHA plus IL-2 for 48 h, washed, and maintained in polypropylene tubes in fresh media without any virus. To determine the levels of HIV infection, the amount of HIV-p24 released into the medium was determined by ELISA (PerkinElmer, Boston, Mass.)
# (§1) Dye uptake and time lapse fluorescence imaging. To characterize the functional state of Panx1 hemichannels, dye uptake experiments using ethidium (Etd) bromide were performed as previously described (18, 19). Cells were washed twice in Hank's balanced salt solution and then exposed to Locke's solution (containing: 154 mM NaCl, 5.4 mM KCl, 2.3 mM CaCl2, 5 mM HEPES and pH 7.4) with 5 μM Etd and time lapse microscopy was performed. Phase-contrast and fluorescence microscopy with time-lapse imaging were used to record cell appearance and fluorescence intensity changes in each condition. Fluorescence was recorded every 30 s. The NIH ImageJ program was used for off-line image analysis and fluorescence quantification. For data representation and calculation of Etd uptake slopes, the average of two independent background fluorescence intensity measurements (FB, expressed as arbitrary units, AU) was subtracted from fluorescence intensity′ in each cell (F1). Results of this calculation (F1-FB), for at least 20 cells, were averaged and plotted against time (expressed in minutes). Slopes were calculated using Microsoft Excel software and expressed as AU/min. Microscope and camera settings remained the same in all experiments. Dead cells were clearly identified during the time lapse microscopy due to their non specific Etd uptake (not inhibited by hemichannel blockers) and were not quantified.
# Panx1 hemichannels [2] = molecular target: T1, Panx1 hemichannels; experiment: Etd uptake in CD4+ T lymphocytes induced by chemokines or gp120; assay type: cell-based; parameters: endogenous in cells; host or cells: primary human PBMCs and purified CD4+ T lymphocytes from leukopacks (New York Blood Center); conditions: gp120 1 μg/ml
# Experimental: as §1
# Panx1 hemichannels [3] = molecular target: T1, Panx1 hemichannels; experiment: HIV-induced Etd uptake in CD4+ T lymphocytes by flow cytometry (FACS); assay type: cell-based; parameters: endogenous in cells; host or cells: primary human PBMCs and purified CD4+ T lymphocytes from leukopacks (New York Blood Center); conditions: HIVADA, 5 min and 72 h
# Experimental: Flow cytometry. To measure Etd uptake in CD4+ T cell populations FACS analysis was performed of cells under control conditions or after HIV exposure at several time points. Etd uptake experiments were performed in CD4+ lymphocytes (3-5×10^5), and after the respective time of Etd uptake, cells were fixed with 2% paraformaldehyde for 30 min at room temperature, incubated with 1% BSA in PBS for 30 min and stained with CD4 antibody for 30 min at 4° C. For analyses of Etd positive populations, 10,000 events were acquired on a BD FACS Canto II and analyzed using FlowJo (Ashland, Oreg.) software as we previously described (17, 20).
# HIVADA = experiment: HIV replication in primary human macrophages, HIV p24 ELISA; assay type: cell-based, Human immunodeficiency virus-1 (HIV); conditions: for inhibition at 100 µM: Human immunodeficiency virus 1, Macrophage
# Excerpt: Monocyte isolation and macrophage culture: Human monocytes were isolated from leukopaks obtained from the New York Blood Center. Peripheral blood mononuclear cells (PBMCs) were isolated by differential centrifugation using a Ficoll gradient (GE Healthcare, Piscataway, N.J.) and CD14 positive cells were isolated from PBMCs using CD14 monoclonal antibodies that were then bound by magnetic nanoparticles and separated using a magnetic field (Stem Cell Technologies, Vancouver, BC, Canada). Isolated CD14 positive cells were cultured adherently for 6 days in the presence of 10 ng/ml macrophage-colony stimulating factor (PeproTech, Rocky Hill, N.J.) in RPMI 1640 with 10% FBS, 5% human AB serum, 1% P/S, and 10 mM HEPES to differentiate the cells into macrophages.
# (§2) HIV replication: After 6 days in culture, macrophages in 48-well plates at a density of 10^5 cells per well were inoculated with 2-20 ng/ml HIVADA, 2 ng/ml HIVYU-2, or 0.2 ng/ml HIVBaL for 24 hours in the presence or absence of purinergic receptor inhibitors. 5 wells were inoculated per condition. After 24 hours, cells were washed with PBS and then cultured with media. Supernatants were collected and medium was changed every 24 hours until 7 days post inoculation (d.p.i.). When the inhibitors oATP, A-740003, MRS 2179, NF 279, BBG, or suramin, were used, they were added when the medium was changed every 24 hours. Viral replication was analyzed by HIV p24 ELISA (Advanced Bioscience Laboratories, Kensington, Md.) according to the manufacturer's instructions
# Macrophages = experiment: Cell viability of macrophages, live/dead assay; assay type: cell-based; conditions: 100 μM, 24 hours
# Excerpt: Cells were imaged using a Zeiss AxioObserver.D1 with an LD Plan-Neofluar 20×/0.4 air objective lens. Images were collected at room temperature through a Zeiss AxioCam MRm camera using Axiovision software.
# [4] = test system: β-lactamase containing HIVBaL; experiment: HIV Entry Assay (β-lactamase / CCF2-AM) in primary human macrophages; assay type: cell-based, Human immunodeficiency virus-1 (HIV); conditions: for reduction in viral entry (percentage of cells with viral entry) relative to HIV only: 100 μM, 4 hours, MOI 0.001-0.01, oATP N=5, others N=3
# Experimental: HIV Entry Assay: Primary human macrophages were cultured in black 96-well plates with a clear bottom (Corning Inc., Corning, N.Y.) at a density of 43,000 cells per well. After 7-8 days in culture, cells were inoculated with β-lactamase containing HIVBaL at a multiplicity of infection (MOI) of 0.01, 0.005, or 0.001 in the presence or absence of the purinergic receptor inhibitors oATP, NF 279, A-740003, or MRS 2179 for 4 hours. Beta-lactamase containing HIVBaL was generated as described previously (27). Briefly, HEK-293T cells were transfected using calcium phosphate with two plasmids, one containing the HIVBaL genome, pWT/BaL (NIH repository), the other containing β-lactamase fused to REV vpr, pMM310 (NIH repository). Cells were transfected for 16 hours and then supernatant was collected 24 and 48 hours following transfection. […] Viral stocks were generated by sucrose gradient purification of the transfection supernatants.
# Alter viral inoculation of primary human macrophages, cells were washed with phenol red-free DMEM (Gibco) then loaded with CCF2-AM for 6 hours at room temperature using the GeneBLAzer In Vivo Detection Kit (Invitrogen, Carlsbad, Calif.). CCF2-AM fluoresces green due to an internal fluorescence resonance energy transfer, but when cleaved by β-lactamase, this interaction is lost and the molecule fluoresces blue. Cells were imaged using an Olympus IX70 with a Plan 10×/0.25 air objective lens. Images were collected at room temperature through an Olympus E-620LS camera attached to the microscope through an OM adapter MF-1. Images were collected directly onto a memory card and there was no image processing following image collection. Images were collected for 8 fields in 4 separate wells per condition and percentage of cells positive for viral entry was determined by counting the number of blue cells (cells that virus had entered) as compared to the total number of blue and green cells.
# HIV = HIV replication in macrophage cultures, strain not named; assay type: cell-based; conditions: apyrase data; concentration not given
# Experimental: as §2
# T1 sequence (Q96RD7 whole entry): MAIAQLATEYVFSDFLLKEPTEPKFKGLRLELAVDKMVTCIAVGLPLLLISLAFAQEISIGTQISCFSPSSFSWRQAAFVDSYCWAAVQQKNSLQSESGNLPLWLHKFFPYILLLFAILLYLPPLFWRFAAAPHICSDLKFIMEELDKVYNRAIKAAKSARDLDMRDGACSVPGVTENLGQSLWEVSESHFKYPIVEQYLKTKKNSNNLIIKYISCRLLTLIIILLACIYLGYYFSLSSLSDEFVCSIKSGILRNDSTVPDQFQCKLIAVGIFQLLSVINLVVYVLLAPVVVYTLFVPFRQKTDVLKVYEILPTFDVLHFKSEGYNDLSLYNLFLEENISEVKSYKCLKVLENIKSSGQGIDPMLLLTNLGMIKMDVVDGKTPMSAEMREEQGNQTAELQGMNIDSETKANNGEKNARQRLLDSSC
compound,measurement,setting,value
CCCN(CCC)S(=O)(=O)c1ccc(C(=O)O)cc1 [probenecid],Etd uptake (rate) induced by the virus,Panx1 hemichannels [1],completely blocked; also recorded: completely reduced
same,"gp120-induced Etd uptake, in presence of blockers",Panx1 hemichannels [2]; 5 min,inhibited
same,"Etd uptake induced by the virus, analyzed by FACS",Panx1 hemichannels [3],reduced Etd uptake
same,"Etd uptake induced by the virus, analyzed by FACS",Panx1 hemichannels [3]; listed as Probenecid,reduced to control conditions (100%)
Cc1ccc(-c2ccc3c(c2)C=C(C(=O)Nc2ccc(C[N+](C)(C)C4CCOCC4)cc2)CCC3)cc1.[Cl-] [TAK-779],Etd uptake induced by R5 viruses,"Panx1 hemichannels [1]; CD4+ T lymphocytes, HIVADA and HIVBal, TAK-779 100 ng/ml",reduced
RANTES/CCL5: a physiological ligand for CCR5,Etd uptake after single addition of chemokine or gp120,"Panx1 hemichannels [2]; chemokines 100 ng/ml, time course",fast and extremely transient increase (only 5 min)
"CNc1ncnc2c1ncn2[C@H]1C[C@H](OP(=O)([O-])[O-])[C@@H](COP(=O)([O-])[O-])O1.[Na+].[Na+].[Na+].[Na+] [MRS 2179, 2′-deoxy-N6-methyladenosine 3′,5′-bisphosphate tetrasodium salt]",inhibition at 100 µM,"HIVADA; 100 μM, 3 independent donors, NF 279 on days 2-7 post inoculation, read-out: inhibition of HIV p24 production as compared to HIV infected cultures without the inhibitors",60 to 70%
same,cell viability (live/dead assay),Macrophages,did not alter cell viability; also recorded: None of the antagonist caused any decrease in cell viability
same,reduction in viral entry (percentage of cells with viral entry) relative to HIV only,[4],did not change
"COc1ccc(CC(=O)NC(N=C(NC#N)Nc2cccc3ncccc23)C(C)(C)C)cc1OC (stereo not drawn) [A-740003, N-[1-[[(Cyanoamino)(5-quinolinylamino)methylene]amino]-2,2-dimethylpropyl]-3,4-dimethoxybenzeneacetamide]",inhibition at 100 µM,HIVADA; read-out: inhibition of HIV p24 production relative to HIV plus the vehicle DMSO,70 to 91%
same,cell viability (live/dead assay),Macrophages,did not alter cell viability; also recorded: None of the antagonist caused any decrease in cell viability
same,reduction in viral entry (percentage of cells with viral entry) relative to HIV only,[4],did not change
"O=C(Nc1ccc(C(=O)Nc2ccc(C(=O)Nc3ccc(S(=O)(=O)[O-])c4cc(S(=O)(=O)[O-])cc(S(=O)(=O)[O-])c34)cc2)cc1)Nc1ccc(C(=O)Nc2ccc(C(=O)Nc3ccc(S(=O)(=O)[O-])c4cc(S(=O)(=O)[O-])cc(S(=O)(=O)[O-])c34)cc2)cc1.[Na+].[Na+].[Na+].[Na+].[Na+].[Na+] [NF 279, 8,8′-[Carbonylbis(imino-4,1-phenylenecarbonylimino-4,1-phenylenecarbonylimino)]bis-1,3,5-naphthalenetrisulfonic acid hexasodium salt]",inhibition of HIV p24 production as compared to HIV infected cultures without the inhibitors,"HIVADA; 100 μM, 3 independent donors, NF 279 on days 2-7 post inoculation",90-98%
same,cell viability (live/dead assay),Macrophages,did not alter cell viability; also recorded: None of the antagonist caused any decrease in cell viability
same,reduction in viral entry (percentage of cells with viral entry) relative to HIV only,[4],98%
"[La+3] [La^3+, Lanthanum]",Etd uptake (rate) induced by the virus,Panx1 hemichannels [1],did not cause changes
same,Etd uptake (rate) induced by the virus,Panx1 hemichannels [1]; listed as Lanthanum,did not affect
apyrase,reduction in HIV replication in macrophages,HIV,no reduction
same,reduction in HIV entry in macrophages,"[4]; apyrase data, concentration not given",no reduction
Cc1ccc(C(=O)Nc2ccc(S(=O)(=O)O)c3cc(S(=O)(=O)O)cc(S(=O)(=O)O)c23)cc1NC(=O)c1cccc(NC(=O)Nc2cccc(C(=O)Nc3cc(C(=O)Nc4ccc(S(=O)(=O)O)c5cc(S(=O)(=O)O)cc(S(=O)(=O)O)c45)ccc3C)c2)c1 [suramin],inhibition of HIVADA replication,"HIVADA; suramin, every time point tested, N=3 donors",100%
same,cell viability (live/dead assay),Macrophages,None of the antagonist caused any decrease in cell viability; also recorded: without altering cell viability
